Results from PubChem BioAssay AID1963865 (Molecular Pharmacology Branch, DTP, NCI, 2024).

System: KRAS PDC multicell spheroid viability
Assay: Anticancer human tumor 825966-067-R-J1-PDC patient-derived colon carcinoma cell line growth inhibition [KRAS2]
Conditions: for IC50: curve of first compound; for viability, T/C: stronger effect = lower value
Outline: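 Combination screen of spheroid viability in tumor-cell co-cultures with endothelial (HUVEC) and mesenchymal stem cell stroma. Each agent was tested in half-log dilutions, topping at clinical Cmax or at 10 microM without a known Cmax.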

[1] = second compound 0.0316 µM, first compound 0.0316 µM
[2] = second compound 0.0316 µM, first compound 0.1 µM
[3] = second compound 0.0316 µM, first compound 0.316 µM
[4] = second compound 0.0316 µM, first compound 1 µM
[5] = second compound 0.0316 µM, first compound 3.16 µM
[6] = second compound 0.0316 µM, first compound 10 µM
[7] = second compound 0.1 µM, first compound 0.0316 µM
[8] = second compound 0.1 µM, first compound 0.1 µM
[9] = second compound 0.1 µM, first compound 0.316 µM
[10] = second compound 0.1 µM, first compound 1 µM
[11] = second compound 0.1 µM, first compound 3.16 µM
[12] = second compound 0.1 µM, first compound 10 µM
[13] = second compound 0.316 µM, first compound 0.0316 µM
[14] = second compound 0.316 µM, first compound 0.1 µM
[15] = second compound 0.316 µM, first compound 0.316 µM
[16] = second compound 0.316 µM, first compound 1 µM
[17] = second compound 0.316 µM, first compound 3.16 µM
[18] = second compound 0.316 µM, first compound 10 µM
[19] = second compound 1 µM, first compound 0.0316 µM
[20] = second compound 1 µM, first compound 0.1 µM
[21] = second compound 1 µM, first compound 0.316 µM
[22] = second compound 1 µM, first compound 1 µM
[23] = second compound 1 µM, first compound 3.16 µM
[24] = second compound 1 µM, first compound 10 µM
[25] = second compound 3.16 µM, first compound 0.0316 µM
[26] = second compound 3.16 µM, first compound 0.1 µM
[27] = second compound 3.16 µM, first compound 0.316 µM
[28] = second compound 3.16 µM, first compound 1 µM
[29] = second compound 3.16 µM, first compound 3.16 µM
[30] = second compound 3.16 µM, first compound 10 µM
[31] = second compound 0.0316 µM, first compound 0.000316 µM
[32] = second compound 0.0316 µM, first compound 0.001 µM
[33] = second compound 0.0316 µM, first compound 0.00316 µM
[34] = second compound 0.0316 µM, first compound 0.01 µM
[35] = second compound 0.1 µM, first compound 0.000316 µM
[36] = second compound 0.1 µM, first compound 0.001 µM
[37] = second compound 0.1 µM, first compound 0.00316 µM
[38] = second compound 0.1 µM, first compound 0.01 µM
[39] = second compound 0.316 µM, first compound 0.000316 µM
[40] = second compound 0.316 µM, first compound 0.001 µM
[41] = second compound 0.316 µM, first compound 0.00316 µM
[42] = second compound 0.316 µM, first compound 0.01 µM
[43] = second compound 1 µM, first compound 0.000316 µM
[44] = second compound 1 µM, first compound 0.001 µM
[45] = second compound 1 µM, first compound 0.00316 µM
[46] = second compound 1 µM, first compound 0.01 µM
[47] = second compound 3.16 µM, first compound 0.000316 µM
[48] = second compound 3.16 µM, first compound 0.001 µM
[49] = second compound 3.16 µM, first compound 0.00316 µM
[50] = second compound 3.16 µM, first compound 0.01 µM
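Note: spheroids exposed to compounds for 7 days.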
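Throughout, for viability, T/C: 100% = DMSO vehicle control viability.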

| Structure (SMILES) | IC50 (second compound 0.0316 µM) | IC50 (second compound 0.1 µM) | IC50 (second compound 0.316 µM) | IC50 (second compound 1 µM) | IC50 (second compound 3.16 µM) | viability, T/C [1] | viability, T/C [2] | viability, T/C [3] | viability, T/C [4] | viability, T/C [7] | viability, T/C [8] | viability, T/C [9] | viability, T/C [10] | viability, T/C [13] | viability, T/C [14] | viability, T/C [15] | viability, T/C [19] | viability, T/C [20] | viability, T/C [25] | viability, T/C [26] | other results |
| --- | --- | --- | --- | --- | --- | --- | --- | --- | --- | --- | --- | --- | --- | --- | --- | --- | --- | --- | --- | --- | --- |
| CC(C)NCC(C(=O)N1CCN(c2ncnc3c2C(C)CC3O)CC1)c1ccc(Cl)cc1 (stereo not given) + C=CC(=O)N1CCN(c2nc(OCC3CCCN3C)nc3c2CCN(c2cccc4cccc(C)c24)C3)CC1CC#N | 2180 nM | 2430 nM | 2140 nM | 1870 nM | 447 nM | 105% | 114% | 131% | 94.2% | 83.8% | 99.2% | 126% | 126% | 87.7% | 118% | 137% | 86.9% | 98.3% | 84.5% | 56.9% | viability, T/C [5]: 29.3%; viability, T/C [6]: 10.8%; viability, T/C [11]: 32.3%; viability, T/C [12]: 9.94%; viability, T/C [16]: 101%; viability, T/C [17]: 23.3%; viability, T/C [18]: 9.48%; viability, T/C [21]: 124%; viability, T/C [22]: 88.1%; viability, T/C [23]: 17.6%; viability, T/C [24]: 5.49%; viability, T/C [27]: 66%; viability, T/C [28]: 13.9%; viability, T/C [29]: 2.27%; viability, T/C [30]: 0.81% |
| CC(C)n1nc(-c2ccc3oc(N)nc3c2)c2c(N)ncnc21 + C=CC(=O)N1CCN(c2nc(OCC3CCCN3C)nc3c2CCN(c2cccc4cccc(C)c24)C3)CC1CC#N | > 100 nM | > 100 nM | > 100 nM | > 100 nM | 9.07 nM | 113% | 141% | – | – | 113% | 108% | – | – | 115% | 94.7% | – | 98.7% | 85.2% | 64.4% | 31.2% | viability, T/C [31]: 111%; viability, T/C [32]: 86.4%; viability, T/C [33]: 116%; viability, T/C [34]: 153%; viability, T/C [35]: 81.6%; viability, T/C [36]: 106%; viability, T/C [37]: 119%; viability, T/C [38]: 162%; viability, T/C [39]: 92%; viability, T/C [40]: 97.3%; viability, T/C [41]: 129%; viability, T/C [42]: 154%; viability, T/C [43]: 89.3%; viability, T/C [44]: 108%; viability, T/C [45]: 105%; viability, T/C [46]: 154%; viability, T/C [47]: 106%; viability, T/C [48]: 84.9%; viability, T/C [49]: 116%; viability, T/C [50]: 39.9% |
| CC1(C)CCC(CN2CCN(c3ccc(C(=O)NS(=O)(=O)c4ccc(NCC5CCOCC5)c([N+](=O)[O-])c4)c(Oc4cnc5[nH]ccc5c4)c3)CC2)=C(c2ccc(Cl)cc2)C1 + C=CC(=O)N1CCN(c2nc(OCC3CCCN3C)nc3c2CCN(c2cccc4cccc(C)c24)C3)CC1CC#N | 1850 nM | 1790 nM | 1770 nM | 1810 nM | 347 nM | 104% | 96% | 84.3% | 93% | 96.7% | 72% | 98.6% | 96.3% | 93.8% | 88.8% | 87.9% | 98.6% | 103% | 89% | 78.2% | viability, T/C [5]: 12.6%; viability, T/C [6]: 0.73%; viability, T/C [11]: 9.74%; viability, T/C [12]: 5.69%; viability, T/C [16]: 93.4%; viability, T/C [17]: 8.01%; viability, T/C [18]: 5.23%; viability, T/C [21]: 100%; viability, T/C [22]: 104%; viability, T/C [23]: 1.8%; viability, T/C [24]: 0.52%; viability, T/C [27]: 54.7%; viability, T/C [28]: 10.2%; viability, T/C [29]: 0.3%; viability, T/C [30]: 2.95% |
| CCN1CCN(Cc2ccc(Nc3ncc(F)c(-c4cc(F)c5nc(C)n(C(C)C)c5c4)n3)nc2)CC1 + C=CC(=O)N1CCN(c2nc(OCC3CCCN3C)nc3c2CCN(c2cccc4cccc(C)c24)C3)CC1CC#N | > 1000 nM | > 1000 nM | > 1000 nM | > 1000 nM | 397 nM | 91% | 113% | 158% | 153% | 108% | 165% | 198% | 123% | 119% | 86.5% | 160% | 102% | 166% | 133% | 125% | viability, T/C [33]: 93.5%; viability, T/C [34]: 112%; viability, T/C [37]: 97.1%; viability, T/C [38]: 114%; viability, T/C [41]: 103%; viability, T/C [42]: 105%; viability, T/C [16]: 115%; viability, T/C [45]: 95.7%; viability, T/C [46]: 110%; viability, T/C [21]: 167%; viability, T/C [22]: 112%; viability, T/C [49]: 83.7%; viability, T/C [50]: 114%; viability, T/C [27]: 61.6%; viability, T/C [28]: 2.39% |
| COc1cc2nccc(Oc3ccc(NC(=O)C4(C(=O)Nc5ccc(F)cc5)CC4)cc3)c2cc1OC + C=CC(=O)N1CCN(c2nc(OCC3CCCN3C)nc3c2CCN(c2cccc4cccc(C)c24)C3)CC1CC#N | 1640 nM | 1800 nM | 1660 nM | 1590 nM | 688 nM | 96.4% | 106% | 84% | 83.1% | 117% | 97.3% | 74.1% | 86.3% | 122% | 91.6% | 107% | 103% | 78.7% | 86.1% | 83.6% | viability, T/C [5]: 4.36%; viability, T/C [6]: 8.53%; viability, T/C [11]: 15.3%; viability, T/C [12]: 7.78%; viability, T/C [16]: 79.7%; viability, T/C [17]: 12%; viability, T/C [18]: 7.79%; viability, T/C [21]: 78.1%; viability, T/C [22]: 81.3%; viability, T/C [23]: 3.62%; viability, T/C [24]: 2%; viability, T/C [27]: 108%; viability, T/C [28]: 29.5%; viability, T/C [29]: 0.34%; viability, T/C [30]: 0.17% |
| Cn1ncnc1[C@H]1c2n[nH]c(=O)c3cc(F)cc(c23)N[C@@H]1c1ccc(F)cc1 + C=CC(=O)N1CCN(c2nc(OCC3CCCN3C)nc3c2CCN(c2cccc4cccc(C)c24)C3)CC1CC#N | > 100 nM | > 100 nM | > 100 nM | > 100 nM | > 100 nM | 85.2% | 82.5% | – | – | 81.5% | 77% | – | – | 91.4% | 82.5% | – | 112% | 98.9% | 84.6% | 102% | viability, T/C [31]: 108%; viability, T/C [32]: 108%; viability, T/C [33]: 91.5%; viability, T/C [34]: 78%; viability, T/C [35]: 86.3%; viability, T/C [36]: 106%; viability, T/C [37]: 119%; viability, T/C [38]: 80%; viability, T/C [39]: 120%; viability, T/C [40]: 103%; viability, T/C [41]: 133%; viability, T/C [42]: 88.1%; viability, T/C [43]: 127%; viability, T/C [44]: 103%; viability, T/C [45]: 98.6%; viability, T/C [46]: 91.3%; viability, T/C [47]: 86.5%; viability, T/C [48]: 123%; viability, T/C [49]: 112%; viability, T/C [50]: 120% |
